Experimental data reported in paper PMC5652693, “Coupling to a cancer-selective heparan-sulfate-targeted branched peptide can by-pass breast cancer cell resistance to methotrexate” (Oncotarget, 2017).
Entries after “also recorded” stand apart in the source; their conditions may differ.

Experiments:
[1] = tested on: A375 human melanoma cells; assay: MTX cytotoxicity screening, A375; type: cell-based; conditions: A-375
Description: (§1) MCF-7 human breast adenocarcinoma, MDA-MB 231 human breast adenocarcinoma, T-24 human bladder carcinoma, PANC-1 human pancreatic carcinoma, HT29 human colon adenocarcinoma, A375 human melanoma, HT-1376 human bladder carcinoma and OVCAR-3 human ovarian carcinoma cells were grown in their recommended media supplemented with 10% fetal calf serum, 200 μg/ml glutamine, 100 μg/ml streptomycin, 60 μg/ml penicillin, and maintained at 37°C, 5% CO2. MDA-MB 231 was maintained at 37°C without CO2. Cell lines were purchased from ATCC.
(§2) MCF-7 and MDA-MB 231 cells were plated at a density of 5 × 10^3 per well in 96-well microplates. […] Cell growth was analyzed after 6 days of incubation at 37°C. Growth inhibition was assessed by 3-(4,5-dimethylthiazol-2-yl)-2,5-diphenyltetrazolium bromide (MTT). Cytotoxicity of drug-conjugated NT4 was compared with that of the corresponding free drugs. The experiment was performed twice in triplicate. EC50 values were calculated by non-linear regression analysis using Graph Pad Prism 5.03 software. Values from untreated controls gave 100% cell viability.

[2] = tested on: T-24 human bladder carcinoma cells; assay: MTX cytotoxicity screening, T-24; type: cell-based
Description: as §1, §2

[3] = tested on: MCF-7 cells; assay: Cytotoxicity with and without heparin, MCF-7; type: cell-based, human; conditions: MCF-7, 610 pM to 10 μM compound in the presence of 1 μM heparin, 6 days at 37°C, MTT
Description: as §2, with “software.” for “software. Values from untreated controls gave 100% cell viability.”

[4] = tested on: MDA-MB 231 human breast adenocarcinoma cells; assay: Cytotoxicity (MTT growth inhibition) in MTX-resistant MDA-MB 231 cells; type: cell-based; conditions: MDA-MB 231, 5 × 10^3 cells per well, 6 days at 37°C, twice in triplicate (Figure 6: mean of six experiments ± SD)
Description: as §1
as §2, with “software.” for “software. Values from untreated controls gave 100% cell viability.”

[5] = tested on: MCF-7 human breast adenocarcinoma cells; assay: Cytotoxicity (MTT growth inhibition) in MTX-sensitive MCF-7 cells; type: cell-based; conditions: MCF7, MCF-7, 5 × 10^3 cells per well, 6 days at 37°C, twice in triplicate (Figure 6: mean of six experiments ± SD)
Description: as §1
as §2, with “software.” for “software. Values from untreated controls gave 100% cell viability.”

[6] = tested on: PANC-1 human pancreatic carcinoma cells; assay: MTX cytotoxicity screening, PANC-1; type: cell-based
Description: as §1, §2

[7] = tested on: OVCAR-3 human ovarian carcinoma cells; assay: MTX cytotoxicity screening, OVCAR-3; type: cell-based
Description: as §1, §2

[8] = tested on: HT-1376 human bladder carcinoma cells; assay: MTX cytotoxicity screening, HT-1376; type: cell-based
Description: as §1, §2

[9] = tested on: HT29 human colon adenocarcinoma cells; assay: MTX cytotoxicity screening, HT29; type: cell-based; conditions: HT-29
Description: as §1, §2

[10] = tested on: MDA-MB 231 cells; assay: Cytotoxicity with and without heparin, MDA-MB 231; type: cell-based, human; conditions: MDA-MB 231, 610 pM to 10 μM compound in the presence of 1 μM heparin, 6 days at 37°C, MTT
Description: as §2, with “software.” for “software. Values from untreated controls gave 100% cell viability.”

[11] = tested on: MCF-7 and MDA-MB 231 cells; assay: Transporter-mediated efflux of Rho 123 by flow cytometry; type: cell-based, human; conditions: 1 μM Rho 123 for 10 minutes, washed, fluorescence monitored 0-120 minutes by flow cytometry
Description: (§3) All experiments were performed using 2 × 10^5 MCF-7 or MDA-MB 231 cells in 96 well U-bottom plates. All dilutions were performed in PBS, containing 5 mM EDTA and 0.5% BSA. 10,000 events were evaluated in a BD FACS Canto II or a BD FACS Calibur (Becton Dickinson, NJ USA). The results were analyzed by FCS Express 6 Flow cytometry software.
To analyze active cell drug export mechanisms, MCF-7 and MDA-MB 231 cells were exposed to 1 μM Rho 123 for 10 minutes, then washed twice with PBS-5 mM EDTA-[…] to remove excess of Rho 123, and fluorescence was monitored immediately (T0) and after 10, 20, 30, 45, 60, 90 and 120 minutes. Each step was followed by three washes in PBS-5 mM EDTA-0.5% BSA. P values were calculated using two-tailed Student's t-test (99% confidence interval) using Graph Pad Prism 5.03 software.

[12] = tested on: orthotopic model of breast cancer; parameters: method as in PMID 26626158; conditions: orthotopic model of breast cancer in mice, identical experimental conditions for conjugate and free drug; cited from earlier work
Text: In previous studies we investigated the cancer selectivity of tetra-branched peptides containing the sequence of human neurotensin, which we named NT4. We developed theranostic molecules for tumor imaging or therapy by coupling NT4 to different functional units or liposomes.

[13] = tested on: NT4 binding to MCF-7 cells; assay: Inhibition of NT4 binding by heparin or heparin binding proteins (flow cytometry), MCF-7; type: cell-based, human; conditions: 250 nM biotinylated NT4; heparin 20, 10 and 1 μg/ml or 1 μM Midkine or Apolipoprotein E4; 30 min, room temperature; Streptavidin-FITC
Description: as §3
(§4) Inhibition of NT4 binding by heparin was carried out incubating cells with 250 nM biotinylated NT4 and various concentrations (20 μg/ml, 10 μg/ml and 1 μg/ml) of heparin for 30 min at room temperature. Inhibition of NT4 binding by heparin binding proteins was carried out incubating cells with 250 nM biotinylated NT4 and 1 μM Midkine or Apolipoprotein E4 for 30 min at room temperature. Cells were finally incubated with 1 μg/ml Streptavidin-FITC.

[14] = tested on: NT4 binding to MDA-MB 231 cells; assay: Inhibition of NT4 binding by heparin or heparin binding proteins (flow cytometry), MDA-MB 231; type: cell-based, human; conditions: 250 nM biotinylated NT4; heparin 20, 10 and 1 μg/ml or 1 μM Midkine or Apolipoprotein E4; 30 min, room temperature; Streptavidin-FITC
Description: as §3, §4

CN(Cc1cnc2nc(N)nc(N)c2n1)c1ccc(C(=O)N[C@@H](CCC(=O)O)C(=O)O)cc1 [MTX, methotrexate]
EC50 [1]: 33.7 nM
EC50 [2]: 80.7 nM
effect of heparin on cytotoxicity [3]: did not affect
EC50 [4]: 506 nM
EC50 [5]: 25.8 nM
EC50 [6]: 23.4 nM
EC50 [7]: 89.5 nM
EC50 [8]: 171 nM
EC50 [9]: 60.9 nM
effect of heparin on cytotoxicity [10]: did not affect

COC(=O)c1ccccc1-c1c2ccc(=N)cc-2oc2cc(N)ccc12 [Rho 123, Rhodamine 123]
drug efflux (Rho 123 signal decrease) compared between cell lines [11]: comparable in the two cell lines

CC(=O)O[C@H]1C(=O)[C@@]2(C)[C@H]([C@H](OC(=O)c3ccccc3)[C@]3(O)C[C@H](OC(=O)[C@H](O)[C@@H](NC(=O)c4ccccc4)c4ccccc4)C(C)=C1C3(C)C)[C@]1(OC(C)=O)CO[C@@H]1C[C@@H]2O [paclitaxel]
tumor regression [12]: not achieved

Apolipoprotein E4: heparin binding protein
inhibition of NT4 binding to MCF-7 cells [13]: inhibited
inhibition of NT4 binding to MDA-MB 231 cells [14]: inhibited

heparin
inhibition of NT4 binding to MCF-7 cells [13]: inhibited; also recorded: abolished
inhibition of NT4 binding to MDA-MB 231 cells [14]: inhibited; also recorded: abolished

B1: Midkine: heparin binding protein (protein, UniProt P21741 21-143, looked up)
Midkine: VAKKKDKVKKGGPGSECAEWAWGPCTPSSKDCGVGFREGTCGAQTQRIRCRVPCNWKKEFGADCKYKFENWGACDGGTGTKVRQGTLKKARYNAQCQETIRVTKPCTPKTKAKAKAKKGKGKD
inhibition of NT4 binding to MCF-7 cells [13]: inhibited
inhibition of NT4 binding to MDA-MB 231 cells [14]: inhibited
